This assay has as its target T1, ERα (Homo sapiens, UniProt P03372).
T1 construct: host or cells: MCF7
T1 sequence (P03372 1-595): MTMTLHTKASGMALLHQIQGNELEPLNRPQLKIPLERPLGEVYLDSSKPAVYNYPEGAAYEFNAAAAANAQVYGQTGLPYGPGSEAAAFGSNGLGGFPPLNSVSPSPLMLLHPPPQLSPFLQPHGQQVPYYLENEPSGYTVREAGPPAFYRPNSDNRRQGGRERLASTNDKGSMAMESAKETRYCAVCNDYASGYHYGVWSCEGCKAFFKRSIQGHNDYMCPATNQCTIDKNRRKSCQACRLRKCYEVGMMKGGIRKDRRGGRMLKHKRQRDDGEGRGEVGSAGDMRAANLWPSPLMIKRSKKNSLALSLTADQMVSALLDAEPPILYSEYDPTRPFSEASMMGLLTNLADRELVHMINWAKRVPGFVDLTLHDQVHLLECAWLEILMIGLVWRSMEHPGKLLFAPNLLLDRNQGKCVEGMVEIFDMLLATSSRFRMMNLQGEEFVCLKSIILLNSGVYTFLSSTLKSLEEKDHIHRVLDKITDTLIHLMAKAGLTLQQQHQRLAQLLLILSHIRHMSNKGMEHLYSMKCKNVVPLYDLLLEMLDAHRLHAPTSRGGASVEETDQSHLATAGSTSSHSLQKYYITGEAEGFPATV
As to the kind of experiment: Estrogen receptor degradation activity: breast cancer cell ERα in cell western assay (MCF7 cells). In kind it is cell-based. The settings on record: for % Degradation At 0.3 μM: 4 hours, relative to fulvestrant 0.1 μM positive control; for DC50: 4 hours post compound addition, concentration which degrades 50% of the estrogen receptor, read-out: Degradation IC50. Here is the method:
Test: Estrogen Receptor Degradation Activity Said test involves measuring the in vitro degradation activity of the compounds of the Table 1a. The measurements of the degradation activities were made using a breast cancer cell ERα in cell western assay as described hereunder. MCF7 cells (ATCC) were seeded in 384 wells microplate (collagen coated) at a concentration of 10000 cells/30 μL per well in red phenol free MEM alpha medium (invitrogen) containing 5% charcoal dextran striped FBS. The following day, 9 points serial 1:5 dilution of each compound was added to the cells in 2.5 μL at final concentrations ranging from […] (in table 2), or 0.1 μM for fulvestrant (using as positive control). At 4 hours post compound addition the cells were fixed by adding 25 μL of formalin (final concentration 5% formalin containing 0.1% triton) for 10 minutes at room temperature and then washed twice with PBS. Then, 50 μL of LI-COR blocking buffer containing 0.1% Triton was added to plate for 30 minutes at room temperature. LI-COR blocking buffer was removed and cells were incubated overnight at cold room with 50 μL anti-ER rabbit monoclonal antibody (Thermo scientific MA1-39540) diluted at 1:1000 in LI-COR blocking buffer containing 0.1% tween-20. Wells which were treated with blocking buffer but no antibody were used as background control. Wells were washed twice with PBS (0.1% tween-20) and incubated at 37° C. for 60 minutes in LI-COR (0.1% tween-20) containing goat anti-rabbit antibody Alexa 488 (1:1000) and Syto-64 a DNA dye (2 μM final concentration). Cells were then washed 3 times in PBS and scanned in ACUMEN explorer (TTP-Labtech). Integrated intensities in the green fluorescence and red fluorescence were measured to determine the levels of ERα and DNA respectively. The degradation activity with respect to estrogen receptors in this test is given by the concentration which degrades 50% of the estrogen receptor (or IC50) in nM. […] DMSO−fulvestrant)).

In the case of `O=C(O)c1ccc2c(c1)CCCC(c1ccc3c(c1)CC3)=C2c1ccc(C=C2CN(CCCF)C2)cc1` [Example 8, 8-(Bicyclo[4.2.0]octa-1,3,5-trien-3-yl)-9-(4-((1-(3-fluoropropyl)azetidin-3-ylidene)methyl)phenyl)-6,7-dihydro-5H-benzo[7]annulene-3-carboxylic acid], the “% Degradation At 0.3 μM” value is given as 86% and the DC50 amounted to 0.4 nM.

Take `O=C(O)c1ccc2c(c1)CCCC(c1cccc3c1CCC3(F)F)=C2c1ccc(C=C2CN(CCCF)C2)cc1` [Example 9, 8-(1,1-difluoro-2,3-dihydro-1H-inden-4-yl)-9-(4-((1-(3-fluoropropyl)azetidin-3-ylidene)methyl)phenyl)-6,7-dihydro-5H-benzo[7]annulene-3-carboxylic acid]: the “% Degradation At 0.3 μM” value turned out to be 90% and the DC50 amounted to 0.6 nM.

For the molecule `O=C(O)c1ccc2c(c1)CCCC(c1cccc3c1CCC3)=C2c1ccc(C=C2CN(CCCF)C2)cc1` [Example 10, 8-(2,3-dihydro-1H-inden-4-yl)-9-(4-((1-(3-fluoropropyl)azetidin-3-ylidene)methyl)phenyl)-6,7-dihydro-5H-benzo[7]annulene-3-carboxylic acid], the “% Degradation At 0.3 μM” value was 90% and the DC50 stood at 0.2 nM.

With `Cc1cc(F)ccc1C1=C(c2ccc(C=C3CN(CCCF)C3)cc2F)c2ccc(C(=O)O)cc2CCC1` [Example 11, 8-(4-fluoro-2-methylphenyl)-9-(2-fluoro-4-((1-(3-fluoropropyl)azetidin-3-ylidene)methyl)phenyl)-6,7-dihydro-5H-benzo[7]annulene-3-carboxylic acid], the “% Degradation At 0.3 μM” value was found to be 91% and the DC50 was 0.3 nM.

Take `O=C(O)c1ccc2c(c1)CCCC(c1ccc(F)c3c1CCC3)=C2c1ccc(C=C2CN(CCCF)C2)cc1` [Example 12, 8-(7-fluoro-2,3-dihydro-1H-inden-4-yl)-9-(4-((1-(3-fluoropropyl)azetidin-3-ylidene)methyl)phenyl)-6,7-dihydro-5H-benzo[7]annulene-3-carboxylic acid]: the “% Degradation At 0.3 μM” value is reported as 93% and the DC50 came out at 0.4 nM.

As to `O=C(O)c1ccc2c(c1)CCCC(c1cccc(Cl)c1C(F)(F)F)=C2c1ccc(C=C2CN(CCC(F)F)C2)cc1` [Example 13, 8-(3-chloro-2-(trifluoromethyl)phenyl)-9-(4-((1-(3,3-difluoropropyl)azetidin-3-ylidene)methyl)phenyl)-6,7-dihydro-5H-benzo[7]annulene-3-carboxylic acid], the “% Degradation At 0.3 μM” value worked out at 89% and the DC50 was 0.5 nM.

Regarding `Cc1c(C2=C(c3ccc(C=C4CN(CCCF)C4)cc3)c3ccc(C(=O)O)cc3CCC2)cccc1C(F)(F)F` [Example 14], the “% Degradation At 0.3 μM” value was 88% and the DC50 stood at 0.2 nM.

With `Cc1cc(C=C2CN(CCCF)C2)c(F)cc1C1=C(c2ccc(F)cc2F)CCCc2cc(C(=O)O)ccc21.Cl` [Example 15, 8-(2,4-difluorophenyl)-9-(5-fluoro-4-((1-(3-fluoropropyl)azetidin-3-ylidene)methyl)-2-methylphenyl)-6,7-dihydro-5H-benzo[7]annulene-3-carboxylic acid hydrochloride], the “% Degradation At 0.3 μM” value is 87% and the DC50 was 0.6 nM.

Regarding `O=C(O)c1ccc2c(c1)CCCC(c1ccc(C(F)(F)F)cc1C(F)(F)F)=C2c1ccc(C=C2CN(CCCF)C2)cc1` [Example 16, 8-(2,4-bis(trifluoromethyl)phenyl)-9-(4-((1-(3-fluoropropyl)azetidin-3-ylidene)methyl)phenyl)-6,7-dihydro-5H-benzo[7]annulene-3-carboxylic acid], the “% Degradation At 0.3 μM” value is recorded as 93% and the DC50 turned out to be 0.4 nM.

Consider `Cc1c(C2=C(c3ccc(F)cc3F)CCCc3cc(C(=O)O)ccc32)ccc(C=C2CN(CCCF)C2)c1F.Cl` [Example 17, 8-(2,4-difluorophenyl)-9-(3-fluoro-4-((1-(3-fluoropropyl)azetidin-3-ylidene)methyl)-2-methylphenyl)-6,7-dihydro-5H-benzo[7]annulene-3-carboxylic acid hydrochloride], for which the “% Degradation At 0.3 μM” value worked out at 89% and the DC50 worked out at 0.5 nM.

In the case of `O=C(O)c1ccc2c(c1)CCCC(c1ncc(F)cc1C(F)(F)F)=C2c1ccc(C=C2CN(CCCF)C2)cc1` [Example 18, 8-(5-fluoro-3-(trifluoromethyl)pyridin-2-yl)-9-(4-((1-(3-fluoropropyl)azetidin-3-ylidene)methyl)phenyl)-6,7-dihydro-5H-benzo[7]annulene-3-carboxylic acid], the “% Degradation At 0.3 μM” value stood at 90% and the DC50 was found to be 0.6 nM.

Turning to `Cc1cc(F)ccc1C1=C(c2ccc(C=C3CN(CCC(F)F)C3)cc2)c2ccc(C(=O)O)cc2CCC1` [Example 19, 9-(4-((1-(3,3-difluoropropyl)azetidin-3-ylidene)methyl)phenyl)-8-(4-fluoro-2-methylphenyl)-6,7-dihydro-5H-benzo[7]annulene-3-carboxylic acid], the “% Degradation At 0.3 μM” value is 93% and the DC50 is 0.2 nM.

As to `O=C(O)c1ccc2c(c1)CCCC(c1ccc(F)cc1F)=C2c1ccc(C=C2CN(CCC(F)F)C2)cc1` [Example 20, 8-(2,4-difluorophenyl)-9-(4-((1-(3,3-difluoropropyl)azetidin-3-ylidene)methyl)phenyl)-6,7-dihydro-5H-benzo[7]annulene-3-carboxylic acid], the “% Degradation At 0.3 μM” value came to 92% and the DC50 worked out at 0.3 nM.

With `O=C(O)c1ccc2c(c1)CCCC(c1c(F)cc(C(F)(F)F)cc1F)=C2c1ccc(C=C2CN(CCCF)C2)cc1` [Example 21, 8-(2,6-difluoro-4-(trifluoromethyl)phenyl)-9-(4-((1-(3-fluoropropyl)azetidin-3-ylidene)methyl)phenyl)-6,7-dihydro-5H-benzo[7]annulene-3-carboxylic acid], the “% Degradation At 0.3 μM” value came out at 93% and the DC50 was 0.3 nM.

`Cc1c(C2=C(c3ccc(C=C4CN(CCC(F)F)C4)cc3)c3ccc(C(=O)O)cc3CCC2)ccc(F)c1F` [Example 22, 8-(3,4-difluoro-2-methylphenyl)-9-(4-((1-(3,3-difluoropropyl)azetidin-3-ylidene)methyl)phenyl)-6,7-dihydro-5H-benzo[7]annulene-3-carboxylic acid]: the “% Degradation At 0.3 μM” value is on record as 93% and the DC50 is 0.5 nM.

`O=C(O)c1ccc2c(c1)CCCC(c1cccc(Cl)c1C(F)(F)F)=C2c1ccc(C=C2CN(CCCF)C2)cc1` [Example 23, 8-(3-chloro-2-(trifluoromethyl)phenyl)-9-(4-((1-(3-fluoropropyl)azetidin-3-ylidene)methyl)phenyl)-6,7-dihydro-5H-benzo[7]annulene-3-carboxylic acid]: the “% Degradation At 0.3 μM” value was found to be 96% and the DC50 was found to be 0.4 nM.

With `O=C(O)c1ccc2c(c1)CCCC(c1cccc(F)c1C(F)(F)F)=C2c1ccc(C=C2CN(CCCF)C2)cc1` [Example 24, 8-(3-fluoro-2-(trifluoromethyl)phenyl)-9-(4-((1-(3-fluoropropyl)azetidin-3-ylidene)methyl)phenyl)-6,7-dihydro-5H-benzo[7]annulene-3-carboxylic acid], the “% Degradation At 0.3 μM” value came to 95% and the DC50 stood at 0.2 nM.

`O=C(O)c1ccc2c(c1)CCCC(c1ccc(F)cc1C(F)(F)F)=C2c1ccc(C=C2CN(CCC(F)F)C2)cc1` [Example 25, 9-(4-((1-(3,3-difluoropropyl)azetidin-3-ylidene)methyl)phenyl)-8-(4-fluoro-2-(trifluoromethyl)phenyl)-6,7-dihydro-5H-benzo[7]annulene-3-carboxylic acid]: the “% Degradation At 0.3 μM” value is listed as 92% and the DC50 stood at 0.5 nM.

The values above are taken from US12612360B2 (Sanofi, priority 2020, dated 2026).
